Data taken from ChEMBL document CHEMBL3044795, “Synthesis and biological evaluation of novel benzoquinones as potential antimicrobial agents” (2013).
Values after ≈ are worked out from the molar mass of the structure shown.

Experiments:
Assay type in all cases: functional
Escherichia coli [1] = experiment: Antibacterial activity against Escherichia coli ATCC 11775 assessed as diamater of growth inhibition zone after 24 hr by agar cup diffusion method
Staphylococcus aureus [2] = experiment: Antibacterial activity against Staphylococcus aureus DSM 1104 assessed as diamater of growth inhibition zone after 24 hr by agar cup diffusion method
Pseudomonas aeruginosa [3] = experiment: Antibacterial activity against Pseudomonas aeruginosa ATCC 10145 assessed as growth inhibition after 24 hr; conditions: ATCC 10145, 24 h
Escherichia coli [4] = experiment: Antibacterial activity against Escherichia coli ATCC 11775 assessed as growth inhibition after 24 hr; conditions: ATCC 11775, 24 h
Escherichia coli [5] = experiment: Antibacterial activity against Escherichia coli ATCC 11775 assessed as growth inhibition after 24 hr by two-fold serial dilution method; conditions: ATCC 11775, 24 h
Pseudomonas aeruginosa [6] = experiment: Antibacterial activity against Pseudomonas aeruginosa ATCC 10145 assessed as growth inhibition after 24 hr by two-fold serial dilution method; conditions: ATCC 10145, 24 h
Candida albicans [7] = experiment: Antifungal activity against Candida albicans DSM 70014 assessed as growth inhibition after 48 hr; conditions: DSM 70014, 48 h
Staphylococcus aureus [8] = experiment: Antibacterial activity against Staphylococcus aureus DSM 1104 assessed as growth inhibition after 24 hr by two fold serial dilution method; conditions: DSM 1104, 24 h
Candida albicans [9] = experiment: Antifungal activity against Candida albicans DSM 70014 assessed as diamater of growth inhibition zone after 48 hr by agar cup diffusion method
Bacillus subtilis [10] = experiment: Antibacterial activity against Bacillus subtilis ATCC 6633 assessed as growth inhibition after 24 hr; conditions: ATCC 6633, 24 h
Staphylococcus aureus [11] = experiment: Antibacterial activity against Staphylococcus aureus DSM 1104 assessed as growth inhibition after 24 hr; conditions: DSM 1104, 24 h
Pseudomonas aeruginosa [12] = experiment: Antibacterial activity against Pseudomonas aeruginosa ATCC 10145 assessed as diamater of growth inhibition zone after 24 hr by agar cup diffusion method
Bacillus subtilis [13] = experiment: Antibacterial activity against Bacillus subtilis ATCC 6633 assessed as growth inhibition after 24 hr by two fold serial dilution method; conditions: ATCC 6633, 24 h
Candida albicans [14] = experiment: Antifungal activity against Candida albicans DSM 70014 assessed as growth inhibition after 48 hr by two-fold serial dilution method; conditions: DSM 70014, 48 h
Bacillus subtilis [15] = experiment: Antibacterial activity against Bacillus subtilis ATCC 6633 assessed as diamater of growth inhibition zone after 24 hr by agar cup diffusion method

SMILES	diameter of the inhibition zone (DIZ) (Escherichia coli [1]) [mm]	diameter of the inhibition zone (DIZ) (Staphylococcus aureus [2]) [mm]	MBC (Pseudomonas aeruginosa [3]) [µg/mL]	MBC (Escherichia coli [4]) [µg/mL]	MIC (Escherichia coli [5]) [µg/mL]	MIC (Pseudomonas aeruginosa [6]) [µg/mL]	MFC (Candida albicans [7]) [µg/mL]	MIC (Staphylococcus aureus [8]) [µg/mL]	diameter of the inhibition zone (DIZ) (Candida albicans [9]) [mm]	MBC (Bacillus subtilis [10]) [µg/mL]	MBC (Staphylococcus aureus [11]) [µg/mL]	diameter of the inhibition zone (DIZ) (Pseudomonas aeruginosa [12]) [mm]	MIC (Bacillus subtilis [13]) [µg/mL]	MIC (Candida albicans [14]) [µg/mL]	diameter of the inhibition zone (DIZ) (Bacillus subtilis [15]) [mm]
COc1cc(/C=N/N=c2\scc(-c3cc(O)ccc3O)n2-c2ccc(C)cc2)ccc1O	14	15	100 (≈ 223 µM)	100 (≈ 223 µM)	50 (≈ 112 µM)	50 (≈ 112 µM)	50 (≈ 112 µM)	25 (≈ 55.9 µM)	12	50 (≈ 112 µM)	50 (≈ 112 µM)	16	50 (≈ 112 µM)	50 (≈ 112 µM)	15
COc1ccc(OC)c(/C=N/N=c2\scc(-c3cc(O)ccc3O)n2-c2ccc(Cl)cc2)c1	18	13	50 (≈ 104 µM)	50 (≈ 104 µM)	25 (≈ 51.9 µM)	50 (≈ 104 µM)	100 (≈ 207 µM)	50 (≈ 104 µM)	13	50 (≈ 104 µM)	100 (≈ 207 µM)	16	50 (≈ 104 µM)	50 (≈ 104 µM)	15
COc1ccc(OC)c(/C=N/N=c2\scc(C3=CC(=O)C=CC3=O)n2-c2ccccc2)c1	14	14	50 (≈ 112 µM)	50 (≈ 112 µM)	50 (≈ 112 µM)	50 (≈ 112 µM)	50 (≈ 112 µM)	50 (≈ 112 µM)	15	50 (≈ 112 µM)	50 (≈ 112 µM)	14	50 (≈ 112 µM)	50 (≈ 112 µM)	15
COc1ccc(OC)c(/C=N/N=c2\scc(C3=CC(=O)C=CC3=O)n2-c2ccc(Cl)cc2)c1	13	14	100 (≈ 208 µM)	100 (≈ 208 µM)	100 (≈ 208 µM)	100 (≈ 208 µM)	100 (≈ 208 µM)	25 (≈ 52.1 µM)	14	100 (≈ 208 µM)	50 (≈ 104 µM)	16	100 (≈ 208 µM)	50 (≈ 104 µM)	14
COc1ccc(OC)c(/C=N/N=c2\scc(-c3cc(O)ccc3O)n2-c2ccccc2)c1	18	16	25 (≈ 55.9 µM)	25 (≈ 55.9 µM)	12.5 (≈ 27.9 µM)	12.5 (≈ 27.9 µM)	50 (≈ 112 µM)	50 (≈ 112 µM)	14	25 (≈ 55.9 µM)	50 (≈ 112 µM)	16	12.5 (≈ 27.9 µM)	25 (≈ 55.9 µM)	15
COc1ccc(/C=N/N=c2\scc(C3=CC(=O)C=CC3=O)n2-c2ccc(Cl)cc2)cc1	16	14	100 (≈ 222 µM)	100 (≈ 222 µM)	100 (≈ 222 µM)	100 (≈ 222 µM)	100 (≈ 222 µM)	100 (≈ 222 µM)	14	100 (≈ 222 µM)	100 (≈ 222 µM)	16	100 (≈ 222 µM)	100 (≈ 222 µM)	15
COc1ccc(/C=N/N=c2\scc(-c3cc(O)ccc3O)n2-c2ccccc2)cc1	14	14	50 (≈ 120 µM)	50 (≈ 120 µM)	50 (≈ 120 µM)	50 (≈ 120 µM)	50 (≈ 120 µM)	50 (≈ 120 µM)	12	50 (≈ 120 µM)	50 (≈ 120 µM)	14	50 (≈ 120 µM)	50 (≈ 120 µM)	15
COc1cc(/C=N/N=c2\scc(C3=CC(=O)C=CC3=O)n2-c2ccc(C)cc2)ccc1O	15	14	100 (≈ 224 µM)	50 (≈ 112 µM)	50 (≈ 112 µM)	100 (≈ 224 µM)	50 (≈ 112 µM)	25 (≈ 56.1 µM)	15	100 (≈ 224 µM)	50 (≈ 112 µM)	15	100 (≈ 224 µM)	50 (≈ 112 µM)	15
COc1ccc(/C=N/N=c2\scc(C3=CC(=O)C=CC3=O)n2-c2ccc(Cl)cc2)cc1O	14	13	50 (≈ 107 µM)	50 (≈ 107 µM)	25 (≈ 53.7 µM)	50 (≈ 107 µM)	25 (≈ 53.7 µM)	50 (≈ 107 µM)	15	50 (≈ 107 µM)	50 (≈ 107 µM)	14	25 (≈ 53.7 µM)	12.5 (≈ 26.8 µM)	14
COc1cc(/C=N/N=c2\scc(-c3cc(O)ccc3O)n2-c2ccc(Cl)cc2)ccc1O	15	16	100 (≈ 214 µM)	100 (≈ 214 µM)	100 (≈ 214 µM)	100 (≈ 214 µM)	100 (≈ 214 µM)	50 (≈ 107 µM)	14	50 (≈ 107 µM)	50 (≈ 107 µM)	14	50 (≈ 107 µM)	100 (≈ 214 µM)	16
COc1ccc(/C=N/N=c2\scc(C3=CC(=O)C=CC3=O)n2-c2ccc(C)cc2)cc1O	14	15	50 (≈ 112 µM)	50 (≈ 112 µM)	50 (≈ 112 µM)	50 (≈ 112 µM)	100 (≈ 224 µM)	100 (≈ 224 µM)	15	50 (≈ 112 µM)	100 (≈ 224 µM)	14	50 (≈ 112 µM)	50 (≈ 112 µM)	14
COc1ccc(/C=N/N=c2\scc(-c3cc(O)ccc3O)n2-c2ccc(Cl)cc2)cc1	14	15	50 (≈ 111 µM)	50 (≈ 111 µM)	25 (≈ 55.3 µM)	50 (≈ 111 µM)	50 (≈ 111 µM)	100 (≈ 221 µM)	15	50 (≈ 111 µM)	100 (≈ 221 µM)	12	50 (≈ 111 µM)	50 (≈ 111 µM)	14
Clc1ccccc1C(c1ccccc1)(c1ccccc1)n1ccnc1 [CLOTRIMAZOLE]														5 (≈ 14.5 µM)	
COc1ccc(/C=N/N=c2\scc(C3=CC(=O)C=CC3=O)n2-c2ccccc2)cc1O	14	14	100 (≈ 232 µM)	50 (≈ 116 µM)	50 (≈ 116 µM)	100 (≈ 232 µM)	100 (≈ 232 µM)	50 (≈ 116 µM)	14	100 (≈ 232 µM)	50 (≈ 116 µM)	16	100 (≈ 232 µM)	100 (≈ 232 µM)	15
CC1(C)S[C@@H]2[C@H](NC(=O)[C@H](N)c3ccccc3)C(=O)N2[C@H]1C(=O)O.O.O.O [AMPICILLIN TRIHYDRATE]					10	50		5					12.5		
